# Measured values from patent US20220349875A1, “METHOD TO INDEPENDENTLY ANALYZE MULTIPLE BIOLOGICAL PROCESSES IN ENCAPSULATED 3D CELL CO-CULTURES” (UNIVERSITÉ DE GENÈVE, priority 2019, published 2022).
# Key:
# [1] = system: BC cells stably expressing the reporter zipGFP-Casp3; test: Apoptosis of encapsulated BC cells (zipGFP-Casp3 reporter), monoculture or multi-culture with LC cells; assay type: cell-based; conditions: micromolar Tamoxifen (1 μM to 10 μM), 96 hours, with vs without LC cells; FIG. 4
# Description: Image acquisition was performed with an automated confocal microscope. Cell segmentation and quantification of cell fluorescence intensities were performed with the software MetaXpress (Molecular Devices). For the quantification of apoptosis, cell fluorescence intensities from far-red-labelled capsules were measured and the green fluorescence was normalized with the red fluorescence. […] Data is representative of 3 independent replicates.
# Dispense capsules in wells of a 96-well imaging quality plate by continuously pipetting up and down to maintain the capsules in suspension before transferring the proper volume into the well.
# Half of wells are not filled with LC capsules (conditions with BC cells only)
# Incubate the plate at 37° C. for 96 hours.
# [2] = system: BC cells stably expressing the dual-reporter FUCCI; test: Proliferation of encapsulated BC cells (FUCCI dual reporter), monoculture or multi-culture with LC cells; assay type: cell-based; conditions: micromolar Tamoxifen (1 μM to 10 μM), 96 hours; FIG. 5
# Description: LC cells were encapsulated in green-labelled alginate capsules, BC cells stably expressing the dual reporter gene FUCCI (active proliferating cells are green, not-proliferating cells (latent) are red) were encapsulated in unlabelled alginate capsules, and BC cells stably expressing the reporter gene zipGFP-Casp3 (all cells are red (reporter expression control) and cells become green upon apoptosis induction) were encapsulated in far-red-labelled alginate capsules. […] Image acquisition was performed with an automated confocal microscope. Cell segmentation and quantification of cell fluorescence intensities were performed with the software MetaXpress (Molecular Devices). For the quantification of proliferation, cell fluorescence intensities from unlabelled capsules were measured. […] Data is representative of 3 independent replicates.
# Induction of apoptosis is measured by automated confocal microscopy (HCS) in BC cells stably expressing the reporter zipGFP-Casp3 and proliferation is measured at the same time in BC cells stably expressing the dual-reporter FUCCI. […]
smiles,measurement,setting,value
CC/C(=C(\c1ccccc1)c1ccc(OCCN(C)C)cc1)c1ccccc1 [Tamoxifen],induction of apoptosis in BC cells,[1],increased by Tamoxifen in a dose-dependent manner only in co-culture with LC cells
same,cell proliferation inhibition,[2],already maximal at 1 μM
